Test system: 947758-054-R-J2-PDC spheroid growth, percent test/control
Test: Anticancer human tumor 947758-054-R-J2-PDC patient-derived colon adenocarcinoma cell line growth inhibition [CLK]
Details: spheroids with HUVEC and MSC; for IC50: curve of first compound; for viability, T/C: stronger effect = lower value
Outline: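 Multi-cell-type spheroids combined patient-derived tumor cells with HUVEC endothelial cells and human mesenchymal stem cells. Paired agents were dosed in half-log steps down from about clinical Cmax, or from 10 microM where Cmax was unknown.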
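Note: spheroids exposed to compounds for one week before readout.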
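Throughout, for viability, T/C: 100% = DMSO vehicle control wells.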

For `Cn1ncnc1[C@H]1c2n[nH]c(=O)c3cc(F)cc(c23)N[C@@H]1c1ccc(F)cc1` + CN1CCN(c2cc(C(=O)Nc3cc4cc(-c5cnn(C)c5)ccc4cn3)ccn2)CC1, the IC50 (second compound 0.0316 µM) was > 100 nM, the IC50 (second compound 0.1 µM) was > 100 nM and the IC50 (second compound 0.316 µM) was < 0.316 nM. For the same molecule, the IC50 (second compound 1 µM) was < 0.316 nM, the IC50 (second compound 3.16 µM) was < 0.316 nM and the IC50 (second compound 10 µM) was < 0.316 nM. For the same molecule, the viability, T/C (second compound 0.0316 µM, first compound 0.000316 µM) was 141%, the viability, T/C (second compound 0.0316 µM, first compound 0.001 µM) was 155% and the viability, T/C (second compound 0.0316 µM, first compound 0.00316 µM) was 157%. It also gave a viability, T/C (second compound 0.0316 µM, first compound 0.01 µM) of 107%, a viability, T/C (second compound 0.0316 µM, first compound 0.0316 µM) of 133% and a viability, T/C (second compound 0.0316 µM, first compound 0.1 µM) of 197%. The viability, T/C (second compound 0.1 µM, first compound 0.000316 µM) was 161%, the viability, T/C (second compound 0.1 µM, first compound 0.001 µM) was 171% and the viability, T/C (second compound 0.1 µM, first compound 0.00316 µM) was 149%. It also gave a viability, T/C (second compound 0.1 µM, first compound 0.01 µM) of 134%, a viability, T/C (second compound 0.1 µM, first compound 0.0316 µM) of 181% and a viability, T/C (second compound 0.1 µM, first compound 0.1 µM) of 145%. It also gave a viability, T/C (second compound 0.316 µM, first compound 0.000316 µM) of 4.7%, a viability, T/C (second compound 0.316 µM, first compound 0.001 µM) of 6.84% and a viability, T/C (second compound 0.316 µM, first compound 0.00316 µM) of 5.57%. It also gave a viability, T/C (second compound 0.316 µM, first compound 0.01 µM) of 4.75%, a viability, T/C (second compound 0.316 µM, first compound 0.0316 µM) of 5.66% and a viability, T/C (second compound 0.316 µM, first compound 0.1 µM) of 4.51%. It also gave a viability, T/C (second compound 1 µM, first compound 0.000316 µM) of 0.15%, a viability, T/C (second compound 1 µM, first compound 0.001 µM) of 0.15% and a viability, T/C (second compound 1 µM, first compound 0.00316 µM) of 1.79%. It also gave a viability, T/C (second compound 1 µM, first compound 0.01 µM) of 0.11%, a viability, T/C (second compound 1 µM, first compound 0.0316 µM) of 0.18% and a viability, T/C (second compound 1 µM, first compound 0.1 µM) of 1.95%. The viability, T/C (second compound 3.16 µM, first compound 0.000316 µM) was 0.37%, the viability, T/C (second compound 3.16 µM, first compound 0.001 µM) was 0.17% and the viability, T/C (second compound 3.16 µM, first compound 0.00316 µM) was 0.17%. For the same molecule, the viability, T/C (second compound 3.16 µM, first compound 0.01 µM) was 0.13%, the viability, T/C (second compound 3.16 µM, first compound 0.0316 µM) was 0.37% and the viability, T/C (second compound 3.16 µM, first compound 0.1 µM) was 1.28%. It also gave a viability, T/C (second compound 10 µM, first compound 0.000316 µM) of 0.25%, a viability, T/C (second compound 10 µM, first compound 0.001 µM) of 2.6% and a viability, T/C (second compound 10 µM, first compound 0.00316 µM) of 0.52%. It also gave a viability, T/C (second compound 10 µM, first compound 0.01 µM) of 0.26%, a viability, T/C (second compound 10 µM, first compound 0.0316 µM) of 0.26% and a viability, T/C (second compound 10 µM, first compound 0.1 µM) of 2.18%.

Reference: PubChem BioAssay AID2060605 (Molecular Pharmacology Branch, DTP, NCI, 2025)
